In US20250170248A1, “SMARCA DEGRADERS AND USES THEREOF” (Kymera Therapeutics, Inc., priority 2021, published 2025):

Legend:
Type in all cases: cell-based
[1] = target: T1, SMARCA2 (Homo sapiens, UniProt P51531); assay: MSD SMARCA2 degradation in A549 cell line; conditions: for Dmax: A549, A549 cells; for Dmax / DC50: 24 h; for DC50 / SMARCA2 MSD A549 degradation 24 h: Average Dmax %: A549 cells; for DC50: read-out: SMARCA2 MSD A549 degradation 24 h: Average external-Abs DC50
Procedure, shortened: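 A549 cells treated 24 h with compound, 3-fold series from 1000 nM. Lysates captured on MSD plates and SMARCA2 quantified with anti-SMARCA2 and SULFO-TAG secondary antibodies (electrochemiluminescence). DC50 and Dmax (% degradation at 24 h) reported as letter bins.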

[2] = target: T1, SMARCA2; assay: SMARCA2 Western blot degradation in MV4-11 cells; design: SMARCA2/SMARCA4 protein degradation selectivity in MV4-11 cells; endogenous in cells; host or cells: MV4-11; conditions: for Dmax: MV4-11, MV4-11 cells, read-out: SMARCA2 MSD MV411 degradation 24 h: average Dmax %; for Dmax / DC50 / SMARCA2 MSD MV411 degradation 24 h: average Dmax %: 24 h; for DC50 / Selectivity in MV411 / SMARCA2 MSD MV411 degradation 24 h: average Dmax %: MV4-11 cells; for DC50: read-out: SMARCA2 MSD MV411 degradation 24 h: Mean external-Abs DC50; for Selectivity in MV411: SMARCA2/4 selectivity
[3] = target: T2, SMARCA4 (Homo sapiens, UniProt P51532); assay: SMARCA4 Western blot degradation in MV4-11 cells; conditions: for Dmax: MV4-11, MV4-11 cells, read-out: SMARCA4 MSD MV411 degradation 24 h: average Dmax %; for Dmax / DC50: 24 h; for DC50 / SMARCA4 MSD MV411 degradation 24 h: average Dmax %: MV4-11 cells; for DC50: read-out: SMARCA4 MSD MV411 degradation 24 h: Mean external-Abs DC50
T2 construct: SMARCA2/SMARCA4 protein degradation selectivity in MV4-11 cells; endogenous in cells; host or cells: MV4-11
T2 sequence (P51532 whole entry): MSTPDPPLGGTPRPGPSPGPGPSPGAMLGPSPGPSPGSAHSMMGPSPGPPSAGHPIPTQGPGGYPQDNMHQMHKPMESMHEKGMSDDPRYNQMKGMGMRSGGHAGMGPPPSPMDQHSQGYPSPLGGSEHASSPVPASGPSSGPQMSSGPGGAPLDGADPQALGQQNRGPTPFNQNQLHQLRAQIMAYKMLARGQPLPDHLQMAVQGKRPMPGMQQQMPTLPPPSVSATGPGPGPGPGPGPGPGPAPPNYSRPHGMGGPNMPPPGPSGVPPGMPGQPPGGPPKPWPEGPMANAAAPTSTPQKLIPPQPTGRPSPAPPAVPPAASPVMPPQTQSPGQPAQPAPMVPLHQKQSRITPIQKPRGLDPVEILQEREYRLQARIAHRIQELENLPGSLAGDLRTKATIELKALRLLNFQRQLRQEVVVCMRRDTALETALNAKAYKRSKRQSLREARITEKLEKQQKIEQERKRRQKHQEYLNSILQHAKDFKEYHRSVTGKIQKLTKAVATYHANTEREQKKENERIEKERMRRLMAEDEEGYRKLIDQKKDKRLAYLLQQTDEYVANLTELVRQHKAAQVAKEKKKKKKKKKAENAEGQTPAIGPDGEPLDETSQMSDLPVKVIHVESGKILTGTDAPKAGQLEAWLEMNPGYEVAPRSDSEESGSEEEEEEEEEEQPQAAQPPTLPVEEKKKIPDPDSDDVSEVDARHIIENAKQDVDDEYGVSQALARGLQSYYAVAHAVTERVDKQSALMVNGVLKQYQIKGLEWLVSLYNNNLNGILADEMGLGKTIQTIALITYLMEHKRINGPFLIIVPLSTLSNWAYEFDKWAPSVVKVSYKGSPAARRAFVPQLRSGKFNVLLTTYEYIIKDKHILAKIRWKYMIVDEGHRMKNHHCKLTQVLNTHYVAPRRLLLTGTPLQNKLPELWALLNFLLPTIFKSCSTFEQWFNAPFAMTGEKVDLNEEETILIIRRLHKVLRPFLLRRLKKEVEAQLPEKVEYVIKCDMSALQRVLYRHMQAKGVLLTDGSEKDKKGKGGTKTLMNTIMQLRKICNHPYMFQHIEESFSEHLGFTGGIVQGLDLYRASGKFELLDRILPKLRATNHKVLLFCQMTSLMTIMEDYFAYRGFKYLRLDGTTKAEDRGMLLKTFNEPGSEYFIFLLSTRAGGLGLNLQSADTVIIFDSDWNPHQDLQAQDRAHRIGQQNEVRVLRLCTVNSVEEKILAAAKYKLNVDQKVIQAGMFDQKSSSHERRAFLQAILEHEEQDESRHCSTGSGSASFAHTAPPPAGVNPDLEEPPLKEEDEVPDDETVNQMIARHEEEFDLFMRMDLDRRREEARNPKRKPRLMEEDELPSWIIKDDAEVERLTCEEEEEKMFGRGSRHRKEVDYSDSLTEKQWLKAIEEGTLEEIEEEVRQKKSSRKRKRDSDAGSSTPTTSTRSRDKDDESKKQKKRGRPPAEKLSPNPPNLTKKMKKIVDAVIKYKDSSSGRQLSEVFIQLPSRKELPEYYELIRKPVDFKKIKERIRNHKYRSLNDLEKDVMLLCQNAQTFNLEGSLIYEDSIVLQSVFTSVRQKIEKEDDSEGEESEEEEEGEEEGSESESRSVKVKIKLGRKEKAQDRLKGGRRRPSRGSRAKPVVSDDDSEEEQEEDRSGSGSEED
Procedure, shortened: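 MV4-11 cells (4×10^6/well) treated with compound for 24 h, lysed in RIPA with protease/phosphatase inhibitors, and SMARCA2, SMARCA4 and beta-actin detected by Western blot with LI-COR readout. Values reported as letter-coded DC50, 24 h Dmax % and SMARCA2/4 selectivity fold.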

T1 sequence (P51531 whole entry): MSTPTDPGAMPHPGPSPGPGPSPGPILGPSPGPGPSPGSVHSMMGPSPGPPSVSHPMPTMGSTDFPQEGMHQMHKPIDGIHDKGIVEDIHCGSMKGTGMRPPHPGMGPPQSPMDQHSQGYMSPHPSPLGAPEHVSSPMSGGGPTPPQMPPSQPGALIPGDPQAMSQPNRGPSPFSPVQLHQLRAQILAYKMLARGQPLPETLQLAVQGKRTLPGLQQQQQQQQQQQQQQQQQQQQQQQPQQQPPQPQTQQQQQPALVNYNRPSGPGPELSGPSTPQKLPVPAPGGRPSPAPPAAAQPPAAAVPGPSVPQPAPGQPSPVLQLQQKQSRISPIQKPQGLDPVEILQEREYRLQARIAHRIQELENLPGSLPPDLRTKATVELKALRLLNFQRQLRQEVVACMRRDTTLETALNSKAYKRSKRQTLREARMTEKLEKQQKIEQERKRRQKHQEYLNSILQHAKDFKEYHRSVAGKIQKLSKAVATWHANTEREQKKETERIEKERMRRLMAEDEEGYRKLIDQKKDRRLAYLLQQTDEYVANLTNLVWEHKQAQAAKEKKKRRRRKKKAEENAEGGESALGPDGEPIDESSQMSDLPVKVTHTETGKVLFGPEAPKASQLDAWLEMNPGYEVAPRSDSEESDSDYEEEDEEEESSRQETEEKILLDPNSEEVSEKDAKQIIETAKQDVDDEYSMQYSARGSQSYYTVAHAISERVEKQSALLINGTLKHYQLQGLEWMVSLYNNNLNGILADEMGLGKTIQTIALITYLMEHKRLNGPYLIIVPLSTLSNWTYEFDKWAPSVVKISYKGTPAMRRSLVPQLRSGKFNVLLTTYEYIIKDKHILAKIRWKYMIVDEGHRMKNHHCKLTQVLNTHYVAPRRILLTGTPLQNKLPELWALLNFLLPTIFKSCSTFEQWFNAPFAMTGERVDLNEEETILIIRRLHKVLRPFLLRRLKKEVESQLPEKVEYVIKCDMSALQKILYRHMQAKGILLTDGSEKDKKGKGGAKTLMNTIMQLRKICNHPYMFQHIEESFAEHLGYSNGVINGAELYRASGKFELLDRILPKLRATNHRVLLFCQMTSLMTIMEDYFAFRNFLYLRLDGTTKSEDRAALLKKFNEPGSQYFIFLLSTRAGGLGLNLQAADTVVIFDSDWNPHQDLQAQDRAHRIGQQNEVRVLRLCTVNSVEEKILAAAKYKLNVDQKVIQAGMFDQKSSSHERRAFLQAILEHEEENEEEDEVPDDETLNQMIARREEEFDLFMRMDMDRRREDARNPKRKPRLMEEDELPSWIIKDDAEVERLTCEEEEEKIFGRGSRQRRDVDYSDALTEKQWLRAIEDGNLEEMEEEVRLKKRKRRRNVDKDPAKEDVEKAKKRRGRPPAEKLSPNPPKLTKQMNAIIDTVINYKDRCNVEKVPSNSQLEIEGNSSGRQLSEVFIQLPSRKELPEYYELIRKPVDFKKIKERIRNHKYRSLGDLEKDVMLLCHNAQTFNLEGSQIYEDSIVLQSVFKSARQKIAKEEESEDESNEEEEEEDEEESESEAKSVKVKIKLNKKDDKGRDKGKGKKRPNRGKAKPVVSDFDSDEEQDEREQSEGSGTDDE

Compound `C#Cc1ccc(CNC(=O)[C@@H]2C[C@@H](O)CN2C(=O)[C@@H](NC(=O)[C@H]2CCC3(CC2)C[C@H](N2CCC(N4CCC(N5CCN6c7cc(-c8ccccc8O)nnc7NC[C@H]6C5)CC4)CC2)C3)C(C)(C)C)cc1` (single isomer, unassigned) [I-174] has a Dmax [1] greater than 90%, a DC50 [1] greater than 100 nM and a Dmax [2] of 70 to 90%. The DC50 [2] was 10 to 100 nM, the “Selectivity in MV411” value [2] was “B (B (>100-500 fold))” and the Dmax [3] was less than 50%. It also gave a DC50 [3] greater than 100 nM.
`C#Cc1ccc(CNC(=O)[C@@H]2C[C@@H](O)CN2C(=O)[C@@H](NC(=O)[C@H]2CCC3(CC2)C[C@H](N2CCC(N4CCC(N5CCN6c7cc(-c8ccccc8O)nnc7NC[C@H]6C5)CC4)CC2)C3)C(C)(C)C)cc1` (single isomer, unassigned) [I-175] was tested, and the “SMARCA2 MSD A549 degradation 24 h: Average Dmax %” value [1] was “A (A (>90% degradation))”, the DC50 [1] was 50 to 100 nM and the “SMARCA2 MSD MV411 degradation 24 h: average Dmax %” value [2] was “B (B (>70-90% degradation))”. For the same compound, the DC50 [2] was 1 to 10 nM, the “Selectivity in MV411” value [2] was “B (B (>100-500 fold))” and the “SMARCA4 MSD MV411 degradation 24 h: average Dmax %” value [3] was “D (D (<50% degradation))”. The DC50 [3] was greater than 100 nM.
Work on `C#Cc1ccc(CNC(=O)[C@@H]2C[C@@H](O)CN2C(=O)[C@@H](NC(=O)[C@H]2CCC3(CC2)C[C@H](N2CCC(N4CCC(N5CCN6c7cc(-c8ccccc8O)nnc7NC[C@H]6C5)CC4)CC2)C3)C(C)(C)C)c(OC)c1` (single isomer, unassigned) [I-177] yielded a Dmax [1] greater than 90%, a DC50 [1] greater than 100 nM and a Dmax [2] of 70 to 90%. For the same compound, the DC50 [2] was 10 to 100 nM, the “Selectivity in MV411” value [2] was “C (C (10-100 fold))” and the Dmax [3] was 50 to 70%. The DC50 [3] was greater than 100 nM.
With `C#Cc1ccc(CNC(=O)[C@@H]2C[C@@H](O)CN2C(=O)[C@@H](NC(=O)N2CC3(CC(N4CCC(N5CCC(N6CCc7[nH]c8nnc(-c9ccccc9O)cc8c7[C@H]6C)CC5)CC4)C3)C2)C(C)(C)C)cc1` (single isomer, unassigned) [I-179] the Dmax [1] was greater than 90%, the DC50 [1] was greater than 100 nM and the Dmax [2] was 70 to 90%. The DC50 [2] was 10 to 100 nM, the “Selectivity in MV411” value [2] was “B (B (>100-500 fold))” and the Dmax [3] was 50 to 70%. It also gave a DC50 [3] greater than 100 nM.
Work on `C#Cc1ccc(CNC(=O)[C@@H]2C[C@@H](O)CN2C(=O)[C@@H](NC(=O)[C@H]2CCC3(CC2)C[C@H](N2CCN(c4cnc(N5CCN6c7cc(-c8ccccc8O)nnc7NC[C@H]6C5)nc4)CC2)C3)C(C)(C)C)c(OC)c1` (single isomer, unassigned) [I-195] yielded a Dmax [1] greater than 90%, a DC50 [1] of 10 to 50 nM and a Dmax [2] greater than 90%. For the same compound, the DC50 [2] was 1 to 10 nM, the “Selectivity in MV411” value [2] was “C (C (10-100 fold))” and the Dmax [3] was 70 to 90%. It also gave a DC50 [3] of 10 to 100 nM.
In the case of `C#Cc1ccc(CNC(=O)[C@@H]2C[C@@H](O)CN2C(=O)[C@@H](NC(=O)[C@H]2CCC3(CC2)C[C@H](N2CCN(c4cnc(N5CCN6c7cc(-c8ccccc8O)nnc7NC[C@H]6C5)nc4)CC2)C3)C(C)(C)C)c(OC)c1` (single isomer, unassigned) [I-196], the “SMARCA2 MSD A549 degradation 24 h: Average Dmax %” value [1] is reported as “A (A (>90% degradation))”, the DC50 [1] is reported as 10 to 50 nM and the “SMARCA2 MSD MV411 degradation 24 h: average Dmax %” value [2] is reported as “B (B (>70-90% degradation))”. The DC50 [2] was 1 to 10 nM, the “Selectivity in MV411” value [2] was “C (C (10-100 fold))” and the “SMARCA4 MSD MV411 degradation 24 h: average Dmax %” value [3] was “C (C (50-70% degradation))”. It also gave a DC50 [3] greater than 100 nM.
Compound `C#Cc1ccc(CNC(=O)[C@@H]2C[C@@H](O)CN2C(=O)[C@@H](NC(=O)C2CCN(C[C@H]3CC[C@@H](N4CCc5[nH]c6nnc(-c7ccccc7O)cc6c5[C@H]4C)CC3)CC2)C(C)(C)C)cc1` (single isomer, unassigned) [I-201] has a Dmax [1] greater than 90%, a DC50 [1] greater than 100 nM and a Dmax [2] of 70 to 90%. For the same compound, the DC50 [2] was 1 to 10 nM, the “Selectivity in MV411” value [2] was “C (C (10-100 fold))” and the Dmax [3] was 50 to 70%. For the same compound, the DC50 [3] was greater than 100 nM.
`C#Cc1ccc(CNC(=O)[C@@H]2C[C@@H](O)CN2C(=O)[C@@H](NC(=O)C2CCN(C[C@H]3CC[C@H](N4CCc5[nH]c6nnc(-c7ccccc7O)cc6c5[C@H]4C)CC3)CC2)C(C)(C)C)cc1` (single isomer, unassigned) [I-202] was tested, and the Dmax [1] was greater than 90%, the DC50 [1] was greater than 100 nM and the Dmax [2] was 70 to 90%. For the same compound, the DC50 [2] was 1 to 10 nM, the “Selectivity in MV411” value [2] was “C (C (10-100 fold))” and the Dmax [3] was 50 to 70%. It also gave a DC50 [3] greater than 100 nM.
`C#Cc1ccc(C2(NC(=O)[C@@H]3C[C@@H](O)CN3C(=O)[C@@H](NC(=O)[C@H]3CC4(C3)C[C@H](N3CCC(N5CCC(N6CCN7c8cc(-c9ccccc9O)nnc8NC[C@H]7C6)CC5)CC3)C4)C(C)(C)C)CC2)cc1` (single isomer, unassigned) [I-211] was tested, and the Dmax [1] was greater than 90%, the DC50 [1] was 50 to 100 nM and the Dmax [2] was 70 to 90%. For the same compound, the DC50 [2] was 1 to 10 nM, the “Selectivity in MV411” value [2] was “A (A (>500 fold))” and the Dmax [3] was less than 50%. The DC50 [3] was greater than 100 nM.
With `C#Cc1ccc([C@H](C)NC(=O)[C@@H]2C[C@@H](O)CN2C(=O)[C@@H](NC(=O)[C@H]2CC3(C2)C[C@H](N2CCC(N4CCC(N5CCN6c7cc(-c8ccccc8O)nnc7NC[C@H]6C5)CC4)CC2)C3)C(C)(C)C)cc1` (single isomer, unassigned) [I-213] the Dmax [1] was greater than 90%, the DC50 [1] was greater than 100 nM and the Dmax [2] was 70 to 90%. For the same compound, the DC50 [2] was 1 to 10 nM, the “Selectivity in MV411” value [2] was “B (B (>100-500 fold))” and the Dmax [3] was less than 50%. For the same compound, the DC50 [3] was greater than 100 nM.
`C#Cc1ccc(CNC(=O)[C@@H]2C[C@@H](O)CN2C(=O)[C@@H](NC(=O)[C@H]2CCC3(CC2)C[C@H](N2CCC(N4CC5(CC(N6CCN7c8cc(-c9ccccc9O)nnc8NC[C@H]7C6)C5)C4)CC2)C3)C(C)(C)C)c(Cl)c1` (single isomer, unassigned) [I-220] was tested, and the Dmax [1] was greater than 90%, the DC50 [1] was greater than 100 nM and the Dmax [2] was 70 to 90%. The DC50 [2] was 10 to 100 nM, the “Selectivity in MV411” value [2] was “B (B (>100-500 fold))” and the Dmax [3] was less than 50%. The DC50 [3] was greater than 100 nM.
`C#Cc1ccc(CNC(=O)[C@@H]2C[C@@H](O)CN2C(=O)[C@@H](NC(=O)[C@H]2CCC3(CC2)C[C@H](N2CCC(N4CCC(N5CCN6c7cc(-c8ccccc8O)nnc7NC[C@H]6C5)CC4)CC2)C3)C(C)(C)C)c(Cl)c1` (single isomer, unassigned) [I-221] showed a Dmax [1] greater than 90%, a DC50 [1] greater than 100 nM and a Dmax [2] of 50 to 70%. For the same compound, the DC50 [2] was 10 to 100 nM, the “Selectivity in MV411” value [2] was “C (C (10-100 fold))” and the Dmax [3] was less than 50%. It also gave a DC50 [3] greater than 100 nM.
`C#Cc1ccc(CNC(=O)[C@@H]2C[C@@H](O)CN2C(=O)[C@@H](NC(=O)[C@H]2CCC3(CC2)C[C@H](N2CCC(N4CC5(CC(N6CCN7c8cc(-c9ccccc9O)nnc8NC[C@H]7C6)C5)C4)CC2)C3)C(C)(C)C)cc1` (single isomer, unassigned) [I-223] was tested, and the Dmax [1] was greater than 90%, the DC50 [1] was 50 to 100 nM and the Dmax [2] was 70 to 90%. The DC50 [2] was 1 to 10 nM, the “Selectivity in MV411” value [2] was “C (C (10-100 fold))” and the Dmax [3] was 50 to 70%. For the same compound, the DC50 [3] was greater than 100 nM.
For `C#Cc1ccc(C2(NC(=O)[C@@H]3C[C@@H](O)CN3C(=O)[C@@H](NC(=O)[C@H]3CC4(C3)C[C@H](N3CCC(N5CCC(N6CCN7c8cc(-c9ccccc9O)nnc8NC[C@H]7C6)CC5)CC3)C4)C(C)(C)C)CC2)cc1` (single isomer, unassigned) [I-225], the “SMARCA2 MSD A549 degradation 24 h: Average Dmax %” value [1] was “A (A (>90% degradation))”, the DC50 [1] was greater than 100 nM and the “SMARCA2 MSD MV411 degradation 24 h: average Dmax %” value [2] was “B (B (>70-90% degradation))”. For the same compound, the DC50 [2] was 1 to 10 nM, the “Selectivity in MV411” value [2] was “B (B (>100-500 fold))” and the “SMARCA4 MSD MV411 degradation 24 h: average Dmax %” value [3] was “D (D (<50% degradation))”. For the same compound, the DC50 [3] was greater than 100 nM.
